The values below come from patent publication US20080280879A1, “SUBSTITUTED HETEROCYCLIC DERIVATIVES AND THEIR PHARMACEUTICAL USE AND COMPOSITIONS” (priority 2007, published 2008).

Structures are written as SMILES. Converted amounts (≈) assume the structure as drawn.

Format in all cases: cell-based, Staphylococcus aureus
Test [1] has as its system Staph aureus 1031. Nature of the test: MIC, microtiter broth dilution (CLSI M7-A7), Assay 2, Table 12 column F, no serum. As to conditions: for MIC: Staphylococcus aureus, 1031, Staph aureus 1031, Assay 2, no serum; for MIC, column F: Staph aureus 1031, Assay 2, no serum. On the procedure: (§1) The assays described herein include a panel of bacterial isolates of Staphylococcus aureus. Assay 1 comprises the strains noted in Columns A through E, and Assay 2 comprises the strains noted in Columns F through H. The assays are performed in microtiter trays according to Methods for Dilution Antimicrobial Susceptibility Tests for Bacteria that Grow Aerobically; Approved Standard-7th edition (M7-A7) and interpreted according to the Performance Standards for Antimicrobial Susceptibility Testing; 16th Informational Supplement (M100-S16) published by Clinical Laboratory Standards Institute (CLSI). The antibacterial activity is presented in the form of a minimum inhibitory concentration (MIC) value in μg/ml format. The MIC value represents the lowest concentration of drug measured which prevented macroscopically visible growth under the conditions and specific doses tested. The compounds were initially dissolved in DMSO as 30 mM stocks and diluted accordingly to adjust to a concentration of 10 mg/ml or the compounds were dissolved in DMSO at a concentration of 10 mg/ml. For assessment of activity in the presence of human serum, S. aureus 1146 and S. aureus 1031 were inoculated into Mueller-Hinton Broth with 50% pooled inactivated human serum. In some cases, compounds were tested more than once in a particular assay. Where noted, the MIC value shown in Table 12 represents the geometric mean of the data from multiple runs.
(§2) It should be understood that the data in columns A-H represents MIC data in μg/ml and the notation “<=” means ‘less than or equal to’.
A general note: Broth dilution looks for growth in wells or tubes with falling amounts of substance.

Test [2] has as its system Staph aureus 1031. Nature of the test: MIC in Mueller-Hinton Broth with 50% pooled inactivated human serum, Assay 2, Table 12 column G. The note with it: for MIC: Staphylococcus aureus, 1031, Staph aureus 1031, Assay 2, 50% human serum. On the procedure:
as §1, §2

Test [3] concerns Staph aureus 2810. Kind of test: MIC, microtiter broth dilution (CLSI M7-A7), Assay 2, Table 12 column H, no serum. As to conditions: for MIC: Staphylococcus aureus, 2810, Staph aureus 2810, Assay 2, no serum; for MIC, column H: Staph aureus 2810, Assay 2, no serum. On the procedure: as §1, §2
In test [4] the test system is Staph aureus 2812. Nature of the test: MIC, microtiter broth dilution (CLSI M7-A7), Assay 1, Table 12 column E, no serum. The note with it: for MIC: Staphylococcus aureus, 2812, Staph aureus 2812, Assay 1, no serum. Put shortly:
(§3)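 MIC read as lowest drug level giving no macroscopically visible growth, μg/ml. Method: CLSI M7-A7 microtiter broth dilution, M100-S16 interpretation. Serum arm: inoculum in Mueller-Hinton Broth + 50% pooled inactivated human serum. Multiple runs → geometric mean.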

Test [5] has as its system Staph aureus 1095 MRSA. Nature of the test: MIC, microtiter broth dilution (CLSI M7-A7), Assay 1, Table 12 column A, no serum. The note with it: Assay 1, no serum; for MIC: Staphylococcus aureus, MRSA. Put shortly: as §3
The subject of test [6] is Staph aureus 1146. Nature of the test: MIC in Mueller-Hinton Broth with 50% pooled inactivated human serum, Assay 1, Table 12. As to conditions: for MIC: Staphylococcus aureus, 1146, Staph aureus 1146, Assay 1, 50% human serum, read-out: MIC, column C. Put shortly:
as §3

Test [7] has as its system Staph aureus 1146. Kind of test: MIC, microtiter broth dilution (CLSI M7-A7), Assay 1, Table 12 column B, no serum. The note with it: for MIC: Staphylococcus aureus, 1146, Staph aureus 1146, Assay 1, no serum. Put shortly: as §3
Test [8] has as its system Staph aureus 2811. Nature of the test: MIC, microtiter broth dilution (CLSI M7-A7), Assay 1, Table 12 column D, no serum. The note with it: for MIC: Staphylococcus aureus, 2811, Staph aureus 2811, Assay 1, no serum. Summed up:
as §3

As a reminder, the MIC is the lowest concentration that inhibits growth of the organism. Take `COC(=O)[C@H]1CN(C2CN(c3ccccn3)C2)CC[C@H]1CCC(O)c1ccnc2ccc(OC)cc12` (stereo partly drawn) [Example 124, methyl (3R,4R)-4-[3-hydroxy-3-(6-methoxyquinolin-4-yl)propyl]-1-(1-pyridin-2-ylazetidin-3-yl)piperidine-3-carboxylate]: the MIC in test [1], in test [2] and in test [3] was more than 64 µg/mL throughout.

For `COC(=O)[C@H]1CN(C2Cc3ccccc3C2)CC[C@H]1CCC(O)c1ccnc2ccc(OC)cc12` (stereo partly drawn) [Example 78, (3R,4R)-methyl 1-(2,3-dihydro-1H-inden-2-yl)-4-(3-hydroxy-3-(6-methoxyquinolin-4-yl)propyl)piperidine-3-carboxylate], the minimum inhibitory concentration (MIC) in test [1], in test [2] and in test [3] was more than 64 µg/mL in each case.

Take `COC(=O)[C@H]1CN(C2CCc3cc(F)ccc32)CC[C@H]1CCC(O)c1ccnc2ccc(OC)cc12` (stereo partly drawn) [Example 73, methyl (3R,4R)-1-(5-fluoro-2,3-dihydro-1H-inden-1-yl)-4-[3-hydroxy-3-(6-methoxyquinolin-yl)propyl]piperidine-3-carboxylate]: the “MIC, column F” value in test [1] was more than 64 µg/mL. For the same molecule, the “MIC, column G” value in test [2] (Staph aureus 1031, Assay 2, 50% human serum) is more than 64 µg/mL. Further, the “MIC, column H” value in test [3] is more than 64 µg/mL.

Turning to `COc1ccc2nccc(C(O)CC[C@@H]3CCN(CC4CCc5nc(-c6cnccn6)ncc5C4)C[C@@H]3C(=O)O)c2c1` (stereo partly drawn) [Example 119, (3R,4R)-4-[3-hydroxy-3-(6-methoxyquinolin-4-yl)propyl]-1-[(2-pyrazin-2-yl-5,6,7,8-tetrahydroquinazolin-6-yl)methyl]piperidine-3-carboxylic acid], the minimum inhibitory concentration (MIC) in test [1], in test [2] and in test [3] was more than 64 µg/mL each time.

Regarding `COc1ccc2nccc(C(O)CC[C@@H]3CCN(C4CC(c5ccccc5)C4)C[C@@H]3C(=O)O)c2c1` (single isomer, unassigned) [Example 1], in test [4] (Staph aureus 2812, Assay 1, no serum), the “MIC, column E” value is “<=.0992 μg/ml”. Also, in test [5], the “MIC, column A” value is reported as “<=.0992 μg/ml”. In addition, in test [6] (Staph aureus 1146, Assay 1, 50% human serum), the “MIC, column C” value was determined as 0.3969 µg/mL (≈ 0.836 µM). The “MIC, column B” value in test [7] (Staph aureus 1146, Assay 1, no serum) was “<=.0787 μg/ml”. The “MIC, column D” value in test [8] (Staph aureus 2811, Assay 1, no serum) was “<=.0787 μg/ml”. In addition, the “MIC, column F” value in test [1] was “<=.0884 μg/ml”. Besides, in test [3], the “MIC, column H” value was found to be 0.125 µg/mL (≈ 0.263 µM).

`COC(=O)[C@H]1CN(C2CCCc3ccccc32)CC[C@H]1CCC(O)c1ccnc2ccc(OC)cc12` (stereo partly drawn) [Example 76, (3R,4R)-methyl 4-(3-hydroxy-3-(6-methoxyquinolin-4-yl)propyl)-1-(1,2,3,4-tetrahydronaphthalen-1-yl)piperidine-3-carboxylate]: the MIC in test [1], in test [2] and in test [3] was more than 64 µg/mL in each case.

Regarding `COc1ccc2nccc(C(O)CC[C@@H]3CCN(C4CCCc5ccccc54)C[C@@H]3C(=O)O)c2c1` (stereo partly drawn) [Example 77, (3R,4R)-4-(3-hydroxy-3-(6-methoxyquinolin-4-yl)propyl)-1-(1,2,3,4-tetrahydronaphthalen-1-yl)piperidine-3-carboxylic acid], the MIC in test [1], in test [2] and in test [3] was more than 64 µg/mL throughout.

For `COc1ccc2nccc([C@@H](O)CNC3(C(=O)O)CCCN(C4CC(c5ccccc5)C4)CC3)c2n1` (stereo partly drawn) [Example 159, 4-{[(2R)-2-hydroxy-2-(6-methoxy-1,5-naphthyridin-4-yl)ethyl]amino}1-(3-phenylcyclobutyl)azepane-4-carboxylic acid], the MIC was 4 µg/mL (≈ 8.15 µM) in test [1], 16 µg/mL (≈ 32.6 µM) in test [2] and 4 µg/mL (≈ 8.15 µM) in test [3].

In the case of `COc1ccc2nccc(C(O)CC[C@@H]3CCN(C4CCc5cc(F)ccc54)C[C@@H]3C(=O)O)c2c1` (stereo partly drawn) [Example 74, (3R,4R)-1-(5-fluoro-2,3-dihydro-1H-inden-1-yl)-4-(3-hydroxy-3-(6-methoxyquinolin-4-yl)propyl)piperidine-3-carboxylic acid], the minimal inhibitory concentration (MIC) in test [1], in test [2] and in test [3] was more than 64 µg/mL in each case.

Turning to `COc1ccc2nccc(C(O)CC[C@@H]3CCN(C4CC(OCc5ccccc5)C4)C[C@@H]3C(=O)O)c2c1` (stereo partly drawn) [Example 20, (3R,4R)-1-[3-(benzyloxy)cyclobutyl]-4-[3-hydroxy-3-(6-methoxyquinolin-4-yl)propyl]piperidine-3-carboxylic acid], the results for the MIC in test [1], in test [2] and in test [3] were 16 µg/mL (≈ 31.7 µM), 64 µg/mL (≈ 127 µM) and 16 µg/mL (≈ 31.7 µM), respectively.

For `COc1ccc2nccc(C(O)CC[C@@H]3CCN(C4CN(c5ccccn5)C4)C[C@@H]3C(=O)O)c2c1` (stereo partly drawn) [Example 125, (3R,4R)-4-[3-hydroxy-3-(6-methoxyquinolin-4-yl)propyl]-1-(1-pyridin-2-ylazetidin-3-yl)piperidine-3-carboxylic acid], the MIC in test [1] was more than 64 µg/mL; in test [2], more than 64 µg/mL; in test [3], 32 µg/mL (≈ 67.1 µM).

`COC(=O)[C@H]1CN(CC2Cc3ccccc3C2)CC[C@H]1CCC(O)c1ccnc2ccc(OC)cc12` (stereo partly drawn) [Example 82, (3R,4R)-methyl 1-((2,3-dihydro-1H-inden-2-yl)methyl)-4-(3-hydroxy-3-(6-methoxyquinolin-4-yl)propyl)piperidine-3-carboxylate]: the MIC was found to be 8 µg/mL (≈ 16.4 µM) in test [1], 32 µg/mL (≈ 65.5 µM) in test [2] and 16 µg/mL (≈ 32.7 µM) in test [3].

With `COc1ccc2nccc(C(O)CC[C@@H]3CCN(CC4Cc5ccccc5C4)C[C@@H]3C(=O)O)c2c1` (stereo partly drawn) [Example 83, (3R,4R)-1-((2,3-dihydro-1H-inden-2-yl)methyl)-4-(3-hydroxy-3-(6-methoxyquinolin-4-yl)propyl)piperidine-3-carboxylic acid], the MIC in test [1] worked out at 8 µg/mL (≈ 16.9 µM); in test [2] it was 64 µg/mL (≈ 135 µM); in test [3], 8 µg/mL (≈ 16.9 µM).

Take `COc1ccc2nccc(CCCC3(C(=O)O)CCN(C4CC(c5ccccc5)C4)CC3)c2c1` (centres unmarked) [Example 93, 4-[3-(6-methoxyquinolin-4-yl)propyl]-1-(3-phenylcyclobutyl)piperidine-4-carboxylic acid]: the MIC in test [4] was 1 µg/mL (≈ 2.18 µM); in test [5], 2 µg/mL (≈ 4.36 µM); in test [6] it was more than 64 µg/mL; in test [7], 2 µg/mL (≈ 4.36 µM); in test [8], 2 µg/mL (≈ 4.36 µM).

With `COc1ccc2ncc(Cl)c(CCCC3(C(=O)O)CCN(C4CC(c5ccccc5)C4)C3)c2c1` (centres unmarked) [Example 86, 3-[3-(3-chloro-6-methoxyquinolin-4-yl)propyl]-1-(3-phenylcyclobutyl)pyrrolidine-3-carboxylic acid], the MIC in test [4] is not above 0.0625 µg/mL; in test [5] it was not above 0.0625 µg/mL; in test [6] it was 8 µg/mL (≈ 16.7 µM); in test [7] it was not above 0.0625 µg/mL; in test [8] it was not above 0.0625 µg/mL.

For `COc1ccc2nccc(C(O)CCC3CCN(C[C@@H]4C[C@H]4c4cc(F)ccc4F)CC3C(=O)O)c2c1` (relative stereo) [Example 26, 1-{[(trans)-2-(2,5-difluorophenyl)cyclopropyl]methyl}-4-[3-hydroxy-3-(6-methoxyquinolin-4-yl)propyl] piperidine-3-carboxylic acid], the minimal inhibitory concentration (MIC) in test [4] is 0.25 µg/mL (≈ 0.49 µM); in test [5], 1 µg/mL (≈ 1.96 µM); in test [6], 4 µg/mL (≈ 7.83 µM); in test [7], 0.25 µg/mL (≈ 0.49 µM); in test [8], 0.25 µg/mL (≈ 0.49 µM).

Turning to `COc1ccc2nccc(C(O)CC[C@@H]3CCN(C4CC5(CCCCC5)C4)C[C@@H]3C(=O)O)c2c1` (stereo partly drawn) [Example 56, (3R,4R)-4-[3-hydroxy-3-(6-methoxyquinolin-4-yl)propyl]-1-spiro[3.5]non-2-ylpiperidine-3-carboxylic acid], the minimum inhibitory concentration (MIC) in test [4] worked out at 0.5 µg/mL (≈ 1.07 µM); in test [5] it was 2 µg/mL (≈ 4.29 µM); in test [6], 2 µg/mL (≈ 4.29 µM); in test [7], 0.5 µg/mL (≈ 1.07 µM); in test [8], 0.5 µg/mL (≈ 1.07 µM).

As to `COc1ccc2nccc([C@H](O)CC[C@@H]3CCN(C4CC(c5cccc(F)c5)C4)C[C@@H]3C(=O)O)c2c1` (stereo partly drawn) [Example 91, (3R,4R)-1-[3-(3-fluorophenyl)cyclobutyl]-4-[(3R)-3-hydroxy-3-(6-methoxyquinolin-4-yl)propyl]piperidine-3-carboxylic acid], the MIC stood at 0.25 µg/mL (≈ 0.508 µM) in test [4]; 0.5 µg/mL (≈ 1.02 µM) in test [5]; 8 µg/mL (≈ 16.2 µM) in test [6]; 0.25 µg/mL (≈ 0.508 µM) in test [7]; 0.25 µg/mL (≈ 0.508 µM) in test [8].
